Values after ≈ are worked out from the molar mass of the structure shown.
Legend:
[1] = tested on: M. abscessus complex; test: MIC (CLSI broth dilution), RGM isolates; assay type: cell-based
[2] = tested on: Mycobacterium chelonae; test: MIC by broth microdilution in CAMHB, clinical isolates; assay type: cell-based
Protocol: (§1) A total of 24 clinical isolates of Mycobacterium abscessus, 22 clinical isolates of Mycobacterium chelonae and 20 clinical isolates of Mycobacterium fortuitum were tested in the study. The study also used the antibiotics tigecycline, doxycycline and amikacin for comparison purposes. […] Amikacin was dissolved in DMSO prior to freezing at −20° C. For susceptibility testing, stock solutions of antibiotic compounds were serially diluted in 50 μL of cation adjusted Mueller-Hinton broth (CAMHB) in polystryrene 96-well round-bottom microtiter plates. To each well, 50 μL of the appropriate mycobacterial cell suspension was added to yield a final concentration of about 1×10^5 CFU/mL. The inoculum used for each isolate was measured by titration in saline with Tween 80 and plating on MH agar. The Mycobacterium abscessus and Mycobacterium fortuitum titer plates were incubated at 37° C. in ambient air for 3-4 days and 5-7 days, respectively. The Mycobacterium chelonae titer plates were incubated at 30° C. in ambient air for 3-5 days. Each isolate was tested at least in duplicate. The MIC was defined as the lowest concentration of antimicrobial agent yielding no visible turbidity.

[3] = tested on: Mycobacterium abscessus; test: as above; assay type: cell-based
Protocol: as §1

[4] = tested on: Mycobacterium fortuitum; test: as above; assay type: cell-based
Protocol: as §1

[5] = tested on: M. mucogenium group; test: MIC (CLSI broth dilution), RGM isolates; assay type: cell-based
[6] = tested on: M. chelonae; test: MIC (CLSI broth dilution), RGM isolates; assay type: cell-based
[7] = tested on: M. immunogenum group; test: MIC (CLSI broth dilution), RGM isolates; assay type: cell-based; settings: M. immunogenum
[8] = tested on: rapid-growing mycobacteria (RGM) isolates; test: MIC (CLSI broth dilution), all RGM isolates; assay type: cell-based, nontuberculous mycobacteria; settings: all 50 RGM isolates
[9] = tested on: M. smegmatis group; test: MIC (CLSI broth dilution), RGM isolates; assay type: cell-based
[10] = tested on: M. fortuitum group; test: MIC (CLSI broth dilution), RGM isolates; assay type: cell-based
[11] = 24 clinical isolates (tigecycline: subset N=14)

NCC[C@H](O)C(=O)N[C@@H]1C[C@H](N)[C@@H](O[C@H]2O[C@H](CN)[C@@H](O)[C@H](O)[C@H]2O)[C@H](O)[C@H]1O[C@H]1O[C@H](CO)[C@@H](O)[C@H](N)[C@H]1O [Amikacin, amikacin]
MIC ([1]; isolate 1, M. abscessus complex, erm gene type MAB30): 8 µg/mL (≈ 13.7 µM)
MIC ([1]; isolate 2, M. abscessus complex, erm gene type MAB30): 4 µg/mL (≈ 6.83 µM)
MIC ([1]; isolate 3, M. abscessus complex, erm gene type MAB30): 16 µg/mL (≈ 27.3 µM)
MIC ([1]; isolate 4, M. abscessus complex, erm gene type massiliense): 8 µg/mL (≈ 13.7 µM)
MIC ([1]; isolate 5, M. abscessus complex, erm gene type massiliense/subsp. abs hybrid): 32 µg/mL (≈ 54.6 µM)
MIC ([1]; isolate 6, M. abscessus complex, erm gene type Type 1 abscessus): 8 µg/mL (≈ 13.7 µM)
MIC ([1]; isolate 7, M. abscessus complex, erm gene type Type 1 abscessus): 8 µg/mL (≈ 13.7 µM)
MIC ([1]; isolate 8, M. abscessus complex, erm gene type Type 1 abscessus): 8 µg/mL (≈ 13.7 µM)
MIC ([1]; isolate 9, M. abscessus complex, erm gene type Type 1 abscessus): >64 µg/mL
MIC ([1]; isolate 10, M. abscessus complex, erm gene type Type 1 abscessus): 16 µg/mL (≈ 27.3 µM)
MIC ([1]; isolate 11, M. abscessus complex, erm gene type Type 6 abscessus): 16 µg/mL (≈ 27.3 µM)
MIC ([1]; isolate 12, M. abscessus complex, erm gene type Type 6 abscessus): 8 µg/mL (≈ 13.7 µM)
MIC ([1]; isolate 13, M. abscessus complex, erm gene type Type 6 abscessus): 4 µg/mL (≈ 6.83 µM)
MIC ([1]; isolate 14, M. abscessus complex, erm gene type Type 6 abscessus): 16 µg/mL (≈ 27.3 µM)
MIC ([1]; isolate 15, M. abscessus complex, erm gene type Type 7 abscessus): 8 µg/mL (≈ 13.7 µM)
MIC ([1]; isolate 16, M. abscessus complex, erm gene type Type 7 abscessus): 16 µg/mL (≈ 27.3 µM)
MIC ([1]; isolate 17, M. abscessus complex, erm gene type Type 8 abscessus): 4 µg/mL (≈ 6.83 µM)
MIC50 ([2]; 22 clinical isolates): 4 µg/mL (≈ 6.83 µM)
MIC90 ([2]; 22 clinical isolates): 8 µg/mL (≈ 13.7 µM)
MIC ([2]; isolate No. 1, MC 7323): 4 µg/mL (≈ 6.83 µM)
MIC ([2]; isolate No. 2, MC 7534): 8 µg/mL (≈ 13.7 µM)
MIC ([2]; isolate No. 3, MC 7368): 16 µg/mL (≈ 27.3 µM)
MIC ([2]; isolate No. 4, MC 7514): 8 µg/mL (≈ 13.7 µM)
MIC ([2]; isolate No. 5, MC 7584): 4 µg/mL (≈ 6.83 µM)
MIC ([2]; isolate No. 6, MC 7192): 4 µg/mL (≈ 6.83 µM)
MIC ([2]; isolate No. 7, MC 7466): 2 µg/mL (≈ 3.42 µM)
MIC ([2]; isolate No. 8, MC 7533): 4 µg/mL (≈ 6.83 µM)
MIC ([2]; isolate No. 9, MC 7579): 4 µg/mL (≈ 6.83 µM)
MIC ([2]; isolate No. 10, MC 7614): 8 µg/mL (≈ 13.7 µM)
MIC ([2]; isolate No. 11, MC 7414): 4 µg/mL (≈ 6.83 µM)
MIC ([2]; isolate No. 12, MC 7313): 2 µg/mL (≈ 3.42 µM)
MIC ([2]; isolate No. 13, MC 7281): 8 µg/mL (≈ 13.7 µM)
MIC ([2]; isolate No. 14, MC 7328): 8 µg/mL (≈ 13.7 µM)
MIC ([2]; isolate No. 15, MC 7294): 8 µg/mL (≈ 13.7 µM)
MIC ([2]; isolate No. 16, MC 14-S-03): 4 µg/mL (≈ 6.83 µM)
MIC ([2]; isolate No. 17, MC 14-S-04): 4 µg/mL (≈ 6.83 µM)
MIC ([2]; isolate No. 18, MC 14-S-05): 8 µg/mL (≈ 13.7 µM)
MIC ([2]; isolate No. 19, MC 14-S-06): 8 µg/mL (≈ 13.7 µM)
MIC ([2]; isolate No. 20, MC 14-S-07): 4 µg/mL (≈ 6.83 µM)
MIC ([2]; isolate No. 21, MC 35757): 2 µg/mL (≈ 3.42 µM)
MIC ([2]; isolate No. 22, MC 7302): 4 µg/mL (≈ 6.83 µM)
MIC50 [3, 11]: 2 µg/mL (≈ 3.42 µM)
MIC90 [3, 11]: 8 µg/mL (≈ 13.7 µM)
MIC ([3]; isolate No. 1, BB2): 8 µg/mL (≈ 13.7 µM)
MIC ([3]; isolate No. 2, BB4): 8 µg/mL (≈ 13.7 µM)
MIC ([3]; isolate No. 3, 5922): 2 µg/mL (≈ 3.42 µM)
MIC ([3]; isolate No. 4, BB3): 2 µg/mL (≈ 3.42 µM)
MIC ([3]; isolate No. 5, BB6): 4 µg/mL (≈ 6.83 µM)
MIC ([3]; isolate No. 6, 5908): 2 µg/mL (≈ 3.42 µM)
MIC ([3]; isolate No. 7, BB7): 0.5 µg/mL (≈ 0.854 µM)
MIC ([3]; isolate No. 8, 6031): 0.5 µg/mL (≈ 0.854 µM)
MIC ([3]; isolate No. 9, 5785): 1 µg/mL (≈ 1.71 µM)
MIC ([3]; isolate No. 10, BB8): 2 µg/mL (≈ 3.42 µM)
MIC ([3]; isolate No. 11, 6111): 2 µg/mL (≈ 3.42 µM)
MIC ([3]; isolate No. 12, 6005): 4 µg/mL (≈ 6.83 µM)
MIC ([3]; isolate No. 13, 5605): 2 µg/mL (≈ 3.42 µM)
MIC ([3]; isolate No. 14, 5931): 0.5 µg/mL (≈ 0.854 µM)
MIC ([3]; isolate No. 15, BB1): 2 µg/mL (≈ 3.42 µM)
MIC ([3]; isolate No. 16, BB5): 8 µg/mL (≈ 13.7 µM)
MIC ([3]; isolate No. 17, 5812): 4 µg/mL (≈ 6.83 µM)
MIC ([3]; isolate No. 18, 5901): 2 µg/mL (≈ 3.42 µM)
MIC ([3]; isolate No. 19, 5960): 1 µg/mL (≈ 1.71 µM)
MIC ([3]; isolate No. 20, 6142): 4 µg/mL (≈ 6.83 µM)
MIC ([3]; isolate No. 21, 5922): 2 µg/mL (≈ 3.42 µM)
MIC ([3]; isolate No. 22, LT 949): 8 µg/mL (≈ 13.7 µM)
MIC ([3]; isolate No. 23, 6025): 8 µg/mL (≈ 13.7 µM)
MIC ([3]; isolate No. 24, 6153): 8 µg/mL (≈ 13.7 µM)
MIC50 ([4]; 20 clinical isolates): 0.5 µg/mL (≈ 0.854 µM)
MIC90 ([4]; 20 clinical isolates): 4 µg/mL (≈ 6.83 µM)
MIC ([4]; isolate No. 1, 3349): 8 µg/mL (≈ 13.7 µM)
MIC ([4]; isolate No. 2, 3499): 0.25 µg/mL (≈ 0.427 µM)
MIC ([4]; isolate No. 3, 2797): 2 µg/mL (≈ 3.42 µM)
MIC ([4]; isolate No. 4, 32): 1 µg/mL (≈ 1.71 µM)
MIC ([4]; isolate No. 5, 33): 2 µg/mL (≈ 3.42 µM)
MIC ([4]; isolate No. 6, 3489): 1 µg/mL (≈ 1.71 µM)
MIC ([4]; isolate No. 7, 3491): 1 µg/mL (≈ 1.71 µM)
MIC ([4]; isolate No. 8, 54): 0.5 µg/mL (≈ 0.854 µM)
MIC ([4]; isolate No. 9, 38): 0.5 µg/mL (≈ 0.854 µM)
MIC ([4]; isolate No. 10, 36): 1 µg/mL (≈ 1.71 µM)
MIC ([4]; isolate No. 11, 3480): 0.5 µg/mL (≈ 0.854 µM)
MIC ([4]; isolate No. 12, 3126): 0.5 µg/mL (≈ 0.854 µM)
MIC ([4]; isolate No. 13, 3579): 1 µg/mL (≈ 1.71 µM)
MIC ([4]; isolate No. 14, 7484): 16 µg/mL (≈ 27.3 µM)
MIC ([4]; isolate No. 15, 3488): 0.5 µg/mL (≈ 0.854 µM)
MIC ([4]; isolate No. 16, 3276): 0.5 µg/mL (≈ 0.854 µM)
MIC ([4]; isolate No. 17, 3442): 0.5 µg/mL (≈ 0.854 µM)
MIC ([4]; isolate No. 18, 3316): 0.125 µg/mL (≈ 0.213 µM)
MIC ([4]; isolate No. 19, 3490): 0.5 µg/mL (≈ 0.854 µM)
MIC ([4]; isolate No. 20, 2491): 4 µg/mL (≈ 6.83 µM)
MIC ([5]; isolate 39, M. mucogenicum group, M. mucogenicum): ≤2 µg/mL
MIC ([5]; isolate 40, M. mucogenicum group, M. mucogenicum): ≤2 µg/mL
MIC ([5]; isolate 41, M. mucogenicum group, M. mucogenicum): ≤2 µg/mL
MIC ([5]; isolate 42, M. mucogenicum group, M. mucogenicum): ≤2 µg/mL
MIC ([5]; isolate 43, M. mucogenicum group, M. phocaicum): ≤2 µg/mL
MIC ([5]; isolate 44, M. mucogenicum group, M. phocaicum): ≤2 µg/mL
MIC ([5]; isolate 45, M. mucogenicum group, M. phocaicum): ≤2 µg/mL
MIC ([5]; isolate 46, M. mucogenicum group, M. phocaicum): ≤2 µg/mL
MIC ([5]; isolate 47, M. mucogenicum group, M. phocaicum): ≤2 µg/mL
MIC ([5]; isolate 48, M. mucogenicum group, M. phocaicum): ≤2 µg/mL
MIC ([6]; isolate 18, M. chelonae): 8 µg/mL (≈ 13.7 µM)
MIC ([6]; isolate 19, M. chelonae): 16 µg/mL (≈ 27.3 µM)
MIC ([6]; isolate 20, M. chelonae): 16 µg/mL (≈ 27.3 µM)
MIC ([6]; isolate 21, M. chelonae): 16 µg/mL (≈ 27.3 µM)
MIC ([6]; isolate 22, M. chelonae): 16 µg/mL (≈ 27.3 µM)
MIC ([7]; isolate 35, M. immunogenum group): 16 µg/mL (≈ 27.3 µM)
MIC ([7]; isolate 36, M. immunogenum group): 4 µg/mL (≈ 6.83 µM)
MIC ([7]; isolate 37, M. immunogenum group): 8 µg/mL (≈ 13.7 µM)
MIC ([7]; isolate 38, M. immunogenum group): 8 µg/mL (≈ 13.7 µM)
MIC50 [8]: 4 µg/mL (≈ 6.83 µM)
MIC90 [8]: 16 µg/mL (≈ 27.3 µM)
MIC ([9]; isolate 49, M. smegmatis group, M. goodii): ≤2 µg/mL
MIC ([9]; isolate 50, M. smegmatis group, M. wolinskyi): ≤2 µg/mL
MIC ([10]; isolate 23, M. fortuitum group, M. fortuitum): ≤2 µg/mL
MIC ([10]; isolate 24, M. fortuitum group, M. fortuitum): ≤2 µg/mL
MIC ([10]; isolate 25, M. fortuitum group, M. fortuitum): ≤2 µg/mL
MIC ([10]; isolate 26, M. fortuitum group, M. porcinum): ≤2 µg/mL
MIC ([10]; isolate 27, M. fortuitum group, M. porcinum): ≤2 µg/mL
MIC ([10]; isolate 28, M. fortuitum group, M. porcinum/M. boenickei): ≤2 µg/mL
MIC ([10]; isolate 29, M. fortuitum group, M. porcinum/M. boenickei): ≤2 µg/mL
MIC ([10]; isolate 30, M. fortuitum group, M. porcinum/M. boenickei): ≤2 µg/mL
MIC ([10]; isolate 31, M. fortuitum group, M. senegalense): ≤2 µg/mL
MIC ([10]; isolate 32, M. fortuitum group, M. senegalense): ≤2 µg/mL
MIC ([10]; isolate 33, M. fortuitum group, M. senegalense): ≤2 µg/mL
MIC ([10]; isolate 34, M. fortuitum group, M. senegalense): ≤2 µg/mL

From US20250332178A1, “METHODS OF TREATING MYCOBACTERIAL INFECTIONS USING TETRACYCLINE COMPOUNDS” (priority 2018, published 2025)
